Results: patent publication US20170050957A1, “4-AMINO-6-(HETEROCYCLIC)PICOLINATES AND 6-AMINO-2-(HETEROCYCLIC)PYRIMIDINE-4-CARBOXYLATES AND THEIR USE AS HERBICIDES” (Dow AgroSciences LLC, priority 2013, published 2017)
Like-named read-outs stand apart in the source and are kept apart here.

Key:
[1] = tested on: Key Grass and Sedge Weeds as well as Grass Crops; assay: Post-emergent Test II herbicidal activity (Table 16); assay type: in vivo; details: post-emergence, 336 h, 14 d; for pest or weed control at 35 g/ha: 35 g ai/ha; for pest or weed control at 70 g/ha: 70 g ai/ha; for pest or weed control at 140 g/ha: 140 g ai/ha
Method in brief: (§1)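 Plants grown in greenhouse (~15 h photoperiod, 23-29 °C day, 22-28 °C night) to first or second true leaf stage, then sprayed post-emergence at 187 L/ha with a high rate and 1/2×, 1/4×, 1/8× and 1/16× dilutions. Injury scored visually after 14 d, 0-100% versus untreated plants.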

[2] = tested on: Key Broadleaf Weed and Crop Species; assay: Post-emergent Test II herbicidal activity (Table 15); assay type: in vivo; details: post-emergence, 336 h, 14 d; for pest or weed control at 35 g/ha: 35 g ai/ha; for pest or weed control at 70 g/ha: 70 g ai/ha; for pest or weed control at 140 g/ha: 140 g ai/ha
Method in brief: as §1

[3] = Cyperus esculentus, yellow nutsedge (Cyperus esculentus), read-out: Visual Growth Reduction (%) 14 Days After Application, CYPES
[4] = Echinochloa crus-galli, barnyardgrass (Echinochloa crus-galli), read-out: Visual Growth Reduction (%) 14 Days After Application, ECHCG
[5] = Oryza sativa, rice (Oryza sativa), read-out: Visual Growth Reduction (%) 14 Days After Application, ORYSA
[6] = Setaria faberi, giant foxtail (Setaria faberi), read-out: Visual Growth Reduction (%) 14 Days After Application, SETFA
[7] = Triticum aestivum, wheat, spring (Triticum aestivum), read-out: Visual Growth Reduction (%) 14 Days After Application, TRZAS
[8] = Zea mays, maize, corn (Zea mays), read-out: Visual Growth Reduction (%) 14 Days After Application, ZEAMX
[9] = Abutilon theophrasti, velvetleaf (Abutilon theophrasti), read-out: Visual Growth Reduction (%) 14 Days After Application, ABUTH
[10] = Amaranthus retroflexus, redroot pigweed (Amaranthus retroflexus), read-out: Visual Growth Reduction (%) 14 Days After Application, AMARE
[11] = Brassica napus, oilseed rape, canola (Brassica napus), read-out: Visual Growth Reduction (%) 14 Days After Application, BRSNN
[12] = Chenopodium album, lambsquarters (Chenopodium album), read-out: Visual Growth Reduction (%) 14 Days After Application, CHEAL
[13] = Euphorbia heterophylla, wild poinsettia (Euphorbia heterophylla), read-out: Visual Growth Reduction (%) 14 Days After Application, EPHHL
[14] = Helianthus annuus, sunflower (Helianthus annuus), read-out: Visual Growth Reduction (%) 14 Days After Application, HELAN

| SMILES | pest or weed control at 35 g/ha [1, 3] [%] | pest or weed control at 70 g/ha [1, 3] [%] | pest or weed control at 140 g/ha [1, 3] [%] | pest or weed control at 35 g/ha [1, 4] [%] | pest or weed control at 70 g/ha [1, 4] [%] | pest or weed control at 140 g/ha [1, 4] [%] | pest or weed control at 35 g/ha [1, 5] [%] | pest or weed control at 70 g/ha [1, 5] [%] | pest or weed control at 140 g/ha [1, 5] [%] | pest or weed control at 35 g/ha [1, 6] [%] | pest or weed control at 70 g/ha [1, 6] [%] | pest or weed control at 140 g/ha [1, 6] [%] | pest or weed control at 35 g/ha [1, 7] [%] | pest or weed control at 70 g/ha [1, 7] [%] | pest or weed control at 140 g/ha [1, 7] [%] | pest or weed control at 35 g/ha [1, 8] [%] | pest or weed control at 70 g/ha [1, 8] [%] | pest or weed control at 140 g/ha [1, 8] [%] | pest or weed control at 35 g/ha [2, 9] [%] | pest or weed control at 70 g/ha [2, 9] [%] | also measured |
| --- | --- | --- | --- | --- | --- | --- | --- | --- | --- | --- | --- | --- | --- | --- | --- | --- | --- | --- | --- | --- | --- |
| COC(=O)c1nc(-c2ccc(Cl)c3ccoc23)cc(N)c1Cl [Compound 2.25] | 0 to 29 | 30 to 44 | 75 to 84 | 0 to 29 | 0 to 29 | 0 to 29 | 0 to 29 | 0 to 29 | 0 to 29 | 0 to 29 | 0 to 29 | 0 to 29 | 0 to 29 | 0 to 29 | 0 to 29 | 0 to 29 | 0 to 29 | 45 to 59 | 75 to 84 | 75 to 84 | pest or weed control at 140 g/ha [2, 9]: 95 to 100%; pest or weed control at 35 g/ha [2, 10]: 95 to 100%; pest or weed control at 70 g/ha [2, 10]: 95 to 100%; pest or weed control at 140 g/ha [2, 10]: 95 to 100%; pest or weed control at 35 g/ha [2, 11]: 0 to 29%; pest or weed control at 70 g/ha [2, 11]: 45 to 59%; pest or weed control at 140 g/ha [2, 11]: 75 to 84%; pest or weed control at 35 g/ha [2, 12]: 95 to 100%; pest or weed control at 70 g/ha [2, 12]: 95 to 100%; pest or weed control at 140 g/ha [2, 12]: 95 to 100%; pest or weed control at 35 g/ha [2, 13]: 0 to 29%; pest or weed control at 70 g/ha [2, 13]: 75 to 84%; pest or weed control at 140 g/ha [2, 13]: 85 to 94%; pest or weed control at 35 g/ha [2, 14]: 0 to 29%; pest or weed control at 70 g/ha [2, 14]: 30 to 44%; pest or weed control at 140 g/ha [2, 14]: 85 to 94%; melting point: 169 °C |
| COC(=O)c1nc(-c2ccc(Cl)c3ccoc23)nc(N)c1OC [Compound 2.26] | 0 to 29 | 0 to 29 | 0 to 29 | 0 to 29 | 0 to 29 | 0 to 29 | 0 to 29 | 0 to 29 | 0 to 29 | 0 to 29 | 0 to 29 | 0 to 29 | 0 to 29 | 0 to 29 | 0 to 29 | 0 to 29 | 0 to 29 | 0 to 29 | 45 to 59 | 60 to 74 | pest or weed control at 140 g/ha [2, 9]: 60 to 74%; pest or weed control at 35 g/ha [2, 10]: 95 to 100%; pest or weed control at 70 g/ha [2, 10]: 95 to 100%; pest or weed control at 140 g/ha [2, 10]: 95 to 100%; pest or weed control at 35 g/ha [2, 11]: 45 to 59%; pest or weed control at 70 g/ha [2, 11]: 60 to 74%; pest or weed control at 140 g/ha [2, 11]: 60 to 74%; pest or weed control at 35 g/ha [2, 12]: 95 to 100%; pest or weed control at 70 g/ha [2, 12]: 95 to 100%; pest or weed control at 140 g/ha [2, 12]: 95 to 100%; pest or weed control at 35 g/ha [2, 13]: 45 to 59%; pest or weed control at 70 g/ha [2, 13]: 60 to 74%; pest or weed control at 140 g/ha [2, 13]: 75 to 84%; pest or weed control at 35 g/ha [2, 14]: 75 to 84%; pest or weed control at 70 g/ha [2, 14]: 95 to 100%; pest or weed control at 140 g/ha [2, 14]: 95 to 100%; melting point: 178 °C |
